Assay results: PubChem BioAssay AID179 (DTP/NCI, 2004)
The source made the active and inactive calls.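 How the source made its calls: active means compounds giving half or more protection of infected cells from virus-caused growth loss, again on retest; inactive means the rest.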

Tested on: CEM cells HIV-1 protection, formazan growth assay
Experiment: NCI AIDS Antiviral Assay
Conditions: for IC50: measured here: growth of uninfected CEM cells
Summary of the method: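 Human CEM cells, uninfected and HIV-1-infected, exposed to five drug concentrations; growth measured by soluble formazan assay and scored as percent protection from infection, with protecting compounds retested.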

Row | Compound | EC50 [µM] | IC50 [µM] | outcome
1 | CC(C)(C)c1cc(C(P(=O)(O)O)P(=O)(O)O)cc(C(C)(C)C)c1O | > 525 | 331 | –
2 | CCc1c(C)c(SC)n(C)c(=O)c1C#N | > 200 | 69.2 | –
3 | CC1=C(C(=O)N(C(C)C)C(C)C)CC(C(=O)N(C(C)C)C(C)C)=C(C)N1 | > 200 | 120 | –
4 | COc1ccc(C(=O)NC(=S)Nc2ccccc2)cc1 | > 34.7 | > 34.7 | –
5 | O=C1c2ccccc2-c2cc(N3C(=O)C=CC3=O)ccc21 | > 200 | 17 | –
6 | COC1=CC2=CCC3C(CC[C@@]4(C)C3CC[C@@H]4C(C)=O)[C@@]2(C)CC1 (some centres undefined) | > 200 | 74.1 | –
7 | O=[N+]([O-])C(/C=C(\Cl)[N+](=O)[O-])=C1Nc2ccccc2N1 | > 200 | 35.5 | –
8 | CCCCCNC(=O)C1C(=O)N(CCCCC)C(=O)/C1=N\N (centres undefined) | > 12 | > 12 | –
9 | CN(C)Cc1cc(N=Nc2ccccc2)ccc1O | > 200 | 102 | –
10 | O=C(CC1(O)C(=O)Nc2c(Cl)cc(Cl)cc21)c1ccc(Cl)cc1 (centres undefined) | – | – | inactive
11 | NC(=O)C(=CNc1nc(-c2ccc(Cl)c(Cl)c2)cs1)C(N)=O | > 200 | 102 | –
12 | C=CCc1cc(OC)c2c(c1)C(O)CC(c1ccc(OC)c(OC)c1)O2 (centres undefined) | > 263 | > 263 | –
13 | O=C1C(Cl)=C(c2ccc(Cl)s2)C(=O)c2ccccc21 | > 42.7 | 7.59 | –
14 | O=C1NC2(CCCCC2)NC12CCCCC2 | > 135 | > 135 | –
15 | CN(C)Cc1cc(C(=O)/C=C/c2c(F)cccc2Cl)cc(CN(C)C)c1O | > 20 | 4.68 | –
16 | CSCCC(C(=O)O)N(CC1(O)OCC(O)C(O)C1O)N=O (centres undefined) | – | – | inactive
17 | CC(CO)CCNc1ncnc2c1ncn2CCC(=O)O (centres undefined) | > 200 | > 200 | –
18 | CC(=O)c1ccc(C(O)C(CO)NC(=O)C(Cl)Cl)cc1 (centres undefined) | > 200 | > 200 | –
19 | BrCC[N+]12CC[N+](CCBr)(CC1)C2 | > 525 | 25.7 | –
20 | Cc1cc2n(n1)C(C)(C)C(=O)Nc1ccc(Cl)cc1-2 | > 49 | 33.9 | –
21 | CC(C)(C)COC(=O)NS(=O)(=O)Nc1ccccc1 | > 200 | > 200 | –
22 | Fc1cccc(C2SCc3nc4ccccc4n32)c1 (centres undefined) | > 209 | 20.9 | –
23 | O=C1C2C3C=C4c5ccccc5N(c5ccccc5)C4(C2C(=O)N1c1ccccc1)C1C(=O)N(c2ccccc2)C(=O)C31 (centres undefined) | – | – | inactive

Row | Compound | EC50 [µM] | IC50 [µM] | outcome
24 | O=C(Nc1nc2ccsc2s1)c1ccccc1 | > 501 | > 501 | –
25 | COc1ccc(/C=C2\N=C(NN)N=C2Cl)cc1 | > 200 | > 200 | –
26 | O=C(N/C(=C/c1cccc([N+](=O)[O-])c1)c1nc2ccc(Cl)cc2[nH]1)c1ccccc1 | – | – | inactive
27 | C=C1CC(COc2ccc3c(C)c(Cl)c(=O)oc3c2)(c2ccccc2)OC1=O (centres undefined) | > 200 | 0.363 | –
28 | COC(=O)CNS(=O)(=O)c1ccc(-c2c3nc(c(-c4ccc(S(=O)(=O)NCC(=O)OC)cc4)c4ccc([nH]4)c(-c4ccc(S(=O)(=O)NCC(=O)OC)cc4)c4nc(c(-c5ccc(S(=O)(=O)NCC(=O)OC)cc5)c5ccc2[nH]5)C=C4)C=C3)cc1 | > 100 | > 100 | –
29 | Cc1nc(N)nc(N)c1N1CCN(c2ccc([N+](=O)[O-])cc2)CC1 | > 100 | 27.5 | –
30 | COC(=O)c1cc(CC2Cc3cc4c(cc3C2=O)CCC4)cc2c1CCC2 (centres undefined) | 33.1 | > 200 | –
31 | CCc1c(O)cc(=O)oc1-c1ccc(OC)c(OC)c1 | > 200 | > 200 | –
32 | CCn1c2cc(C)c(C)cc2nc2cc3c(cc21)c(Cl)c(=O)c1ccccc13 | > 200 | > 200 | –
33 | O=C(C(=Cn1c(=S)[nH]c2ccc([N+](=O)[O-])cc21)C(=O)c1ccccc1)c1ccccc1 | > 200 | 81.3 | –
34 | N/C(=N\NS(=O)(=O)c1ccccc1)C(F)(F)F | > 200 | 107 | –
35 | CC[N+]1(C)CCC(O)(/C=C/c2ccc(Cl)cc2)C(C(=O)/C=C/c2ccc(Cl)cc2)C1 (centres undefined) | > 20 | 2.95 | –
36 | CN(C)C(F)=PC(F)(F)F (centres undefined) | > 251 | > 251 | –
37 | C/C(CC(O)(C(F)(F)Cl)C(F)(F)Cl)=N\NC(N)=S | > 200 | 110 | –
38 | O=CNc1ccc(S(=O)(=O)c2ccc([N+](=O)[O-])cc2)cc1 | > 200 | 30.2 | –
39 | O=C(O)CN(CC(=O)O)C(C(=O)O)c1ccccc1 (centres undefined) | > 200 | > 200 | –
40 | CC(C)N1CC2CN(Cc3ccccc3)CC(C1)C2=O | > 479 | > 479 | –
41 | OC(C(c1ccccc1)c1ccccn1)(C(F)(F)F)C(F)(F)F (centres undefined) | > 200 | > 200 | –
42 | CC(C)(C)N/N=C(\C(=O)Nc1cccc(Cl)c1)C1C(=O)Nc2ccccc2S1=O (centres undefined) | – | – | inactive
43 | Cc1cccc(C)c1NC(=S)/N=C\c1c(O)[nH]c(=O)[nH]c1=O | > 200 | > 200 | –
44 | COc1ncnc2c1ncn2C1OC(CO)CC1F (centres undefined) | > 186 | > 186 | –
45 | O=C1C/C(=C/c2ccc(/C=C3/CC(=O)N(c4cccc(Br)c4)C3=O)cc2)C(=O)N1c1cccc(Br)c1 | > 11.2 | > 11.2 | –
46 | CC[n+]1c(/C=C/c2ccc(N(CCCl)CCCl)cc2)ccc2cc(NC(=O)/C=C/c3ccccc3)ccc21 | – | – | inactive

Row | Compound | EC50 [µM] | IC50 [µM] | outcome
47 | O=C(N/N=C1\CCc2ccccc2C1)N/N=C1\CCc2ccccc2C1 | > 200 | 51.3 | –
48 | COC(=O)CNCC1OC2OC(C)(C)OC2C1N=[N+]=[N-] (centres undefined) | > 200 | > 200 | –
49 | CN1CCN(C(=O)CCNC(=O)Cc2ccc(C(=O)c3ccccc3)cc2)CC1 | > 200 | 64.6 | –
50 | COc1ccc(/C=C2/SC(=Nc3ccccc3)N(NC(=O)Cc3ccccc3)C2=O)c(OC)c1 | > 75.9 | > 75.9 | –
51 | COc1ccc(N2C(=O)C3c4[nH]c5ccc(C)cc5c4C4CCC(C(C)C)CC4C3C2=O)cc1 (centres undefined) | – | – | inactive
52 | COC(=O)[C@@]12CN(C)[C@@H](C(C)(C)C)N1C(=O)OC2c1ccccc1 (some centres undefined) | > 200 | > 200 | –
53 | COc1ccc2c3c1OC1CC(O)C=CC31CCN(C)C2 (centres undefined) | > 200 | > 200 | –
54 | CCCCCCCCCCCCCCCCOP(=O)(O)OCC(NC(C)=O)C(=O)O (centres undefined) | > 200 | 63.1 | –
55 | OCCNCN(CNCCO)c1nc(N(CNCCO)CNCCO)nc(N(CNCCO)CNCCO)n1 | > 200 | 11.2 | –
56 | COc1ccccc1NC(=S)N/C=C(\C#N)C(=O)c1ccc2ccccc2c1 | > 200 | 37.2 | –
57 | O=C1Nc2ccccc2C12CCNC2Cc1ccccc1 (centres undefined) | > 794 | 263 | –
58 | Cc1ccc(Sc2ccccc2[N+](=O)[O-])cc1 | – | – | inactive
59 | O=C(c1cc(O)c(O)c(O)c1)c1ccc(O)c(O)c1O | > 200 | 3.98 | –
60 | COc1ccc(C(=O)/C=C/c2ccc(OCC(=O)N3CCN(c4ccccc4)CC3)cc2)cc1OC | – | – | inactive
61 | O=[N+]([O-])c1ccc2cnn(CN3CCCCC3)c2c1 | > 200 | 89.1 | –
62 | O=C1/C(=C/c2ccccc2)Oc2cc(O)ccc21 | > 200 | 110 | –
63 | CC1(C)C2CC1C(/C=N\OCC(=O)O)=CC2=O (centres undefined) | > 200 | > 200 | –
64 | O=C1OS(=O)(=O)c2ccccc21 | > 200 | > 200 | –
65 | CCC1(c2ccccc2)C(=O)N=C(c2ccccc2)N1CCc1ccccc1 (centres undefined) | > 200 | > 200 | –
66 | O=C1CCCCCCCCCCC1Sc1ccccc1 (centres undefined) | > 12.3 | > 12.3 | –
67 | COc1cccc(C=O)c1[O-].COc1cccc(C=O)c1[O-].[Cu+2] | > 97.7 | 9.33 | –
68 | CCN1C(=O)C(=O)OC1=C(c1ccccc1)c1ccccc1 | – | – | inactive
69 | O=c1cc(CBr)c2ccc(O)cc2o1 | > 200 | 102 | –

Row | Compound | EC50 [µM] | IC50 [µM] | outcome
70 | COc1ccccc1NC(=O)/C(Cc1nc2ccc([N+](=O)[O-])cc2[nH]c1=O)=N\NC(=O)C[N+](C)(C)C | > 245 | 50.1 | –
71 | N#C/C(C(=O)Nc1ccccc1)=C(/N)N1CCCCC1 | > 200 | > 200 | –
72 | O=c1[nH]cc(/C=N\OCCP(=O)(O)O)c(=O)[nH]1 | > 200 | > 200 | –
73 | OC(c1cc2ccccc2[nH]1)C(O)(c1cc2ccccc2[nH]1)c1cc2ccccc2[nH]1 (centres undefined) | > 12.9 | 11 | –
74 | Cn1c(=O)c2c(nc(NCCCCl)n2CC(=O)NCCCCl)n(C)c1=O | > 200 | > 200 | –
75 | CC(=O)Nc1ccc(-n2[nH]c(=O)n(C)c2=O)cc1 | > 100 | > 100 | –
76 | CNC(=O)NCCCC(NC(C)=O)C(=O)NCc1ccccc1 (centres undefined) | > 112 | > 112 | –
77 | CCCN(CCCC(NC(C)=O)C(=O)NCc1ccccc1)C(=O)NC (centres undefined) | > 692 | > 692 | –
78 | NC1(C(=O)O)CCCC1 | > 724 | > 724 | –
79 | COc1c2c3c(ccnc3c3ccccc13)C(=O)N2C | > 200 | 9.55 | –
80 | CCC1C(c2cc(OC)c(OC)c(OC)c2)c2cc3c(cc2OC1N1CCCC1)OCO3 (centres undefined) | > 200 | 1.12 | –
81 | Cc1cc(S(=O)(=O)Nc2nc(N)nc(N(C)C)n2)c(S)cc1Cl | > 182 | 166 | –
82 | CON(C)C(=O)C(C)N(Cc1ccccc1)Cc1ccccc1 (centres undefined) | > 83.2 | 33.1 | –
83 | Cc1cc2c(c(C)c1O)C(C)(C)CN2C(=O)C(C)(C)C | > 200 | 74.1 | –
84 | Cc1cc2oc(=N)c(C#N)c(C)c2cc1C | > 200 | 43.7 | –
85 | CCCCN1C[C@H](OC(=O)CCC)[C@@H](OC(=O)CCC)[C@H](OC(=O)CCC)[C@H]1COC(=O)CCC | > 200 | > 200 | –
86 | O=C(NNc1nc2ccc(Cl)cc2s1)c1cnc2n(c1=O)CCS2 | > 200 | 102 | –
87 | O=c1oc(-c2ccccc2)nnc1-c1ccccc1 | > 178 | > 178 | –
88 | CC(=O)OCC1OC(n2c(-c3cccs3)c3c(c(C#N)c2=S)-c2ccccc2CC3)C(OC(C)=O)C(OC(C)=O)C1OC(C)=O (centres undefined) | – | – | inactive
89 | CSCCC(NC(=O)c1ccccc1C(=O)O)C(=O)O (centres undefined) | > 200 | > 200 | –
90 | Cc1c(Cc2ccccc2)c(=O)oc2cc(O)ccc12 | > 97.7 | 93.3 | –
